What was measured:
[1] = molecular target: T1, TRPM8 (Homo sapiens, UniProt Q7Z2W7); assay: Ca2+ fluorimetry assay in CHO cell line stably expressing TRPM8; type: cell-based; settings: CHO cells stably expressing TRPM8; for activation at 10 µM: Fluo-4NW fluorescence; for EC50: concentrations 0.1, 1, 10 and 100 μM, sigmoid fit
T1 construct: expressed in transfected cells
Procedure: The cells were cultured in monolayer in EMEM medium (Earle's minimum essential medium with Earle's salts, Invitrogen) supplemented with 10% foetal bovine serum (FBS), 2 mM L-glutamine, 1% penicillin-streptomycin solution and […] of the Geneticin antibiotic (Sigma) and kept at 37° C. in a humidified atmosphere with 5% of CO2. Ca^2+ fluorimetry assays were carried out in order to determine the efficacy of the compounds on the TRPM8 channels. The cells were seeded in 96-well plates with a density of 25,000 cells per well. Three days after seeding, the medium was removed and 100 μl of the Fluo-4NW fluorescent probe from Invitrogen was added with a concentration of 5 μM in the presence of 0.02% pluronic acid; after 60 minutes of incubation at 37° C. in a humidified atmosphere with 5% of CO2, the fluorescence was measured in a microplate reader (POLARstar Omega) with a configuration of 485 nm for the excitation and 520 nm for the emission, during 20 cycles. […] In the wells that were used as negative controls, 1 μl of AMTB [N-(3-aminopropyl)-2-[(3-methylphenyl)methoxy]-N-(2-thienylmethyl)benzamide] was added to obtain a final concentration of 10 μM, to block the TRPM8 channels.
The amplitudes of the Ca^2+ increases, caused by the stimulation of the cells with the compounds, were measured by subtracting the basal fluorescence signal (mean intensity obtained before adding the compound) from the fluorescence peak obtained after applying the compounds. The obtained results were adjusted to a sigmoid function using the software suite of the GraphPad Prism computer program.

[2] = tested on: guinea pig; assay: In vivo tear secretion measured using phenol red threads after ocular instillation; settings: instilled ocularly at 200 μM, phenol red thread 30 seconds
Description: The in vivo activity of the selected TRPM8 activating compounds (TZM-7) has been assessed in an animal model following the protocol described in Acosta M C et al., Invest Ophthalmol Vis Sci 2014 (Corneal sensory nerve activity in an experimental model of UV keratitis. Acosta M et al., Invest Ophthalmol Vis Sci May 1; 55(6):3403-12). […] Tear secretion can be measured using phenol red threads (Zone-Quick, Menicon, Nagoya, Japan) that are applied to the nasal edge of the lower eyelid for 30 seconds (after that time, the distance of the red-dyed thread is measured in mm).

T1 sequence (Q7Z2W7 whole entry): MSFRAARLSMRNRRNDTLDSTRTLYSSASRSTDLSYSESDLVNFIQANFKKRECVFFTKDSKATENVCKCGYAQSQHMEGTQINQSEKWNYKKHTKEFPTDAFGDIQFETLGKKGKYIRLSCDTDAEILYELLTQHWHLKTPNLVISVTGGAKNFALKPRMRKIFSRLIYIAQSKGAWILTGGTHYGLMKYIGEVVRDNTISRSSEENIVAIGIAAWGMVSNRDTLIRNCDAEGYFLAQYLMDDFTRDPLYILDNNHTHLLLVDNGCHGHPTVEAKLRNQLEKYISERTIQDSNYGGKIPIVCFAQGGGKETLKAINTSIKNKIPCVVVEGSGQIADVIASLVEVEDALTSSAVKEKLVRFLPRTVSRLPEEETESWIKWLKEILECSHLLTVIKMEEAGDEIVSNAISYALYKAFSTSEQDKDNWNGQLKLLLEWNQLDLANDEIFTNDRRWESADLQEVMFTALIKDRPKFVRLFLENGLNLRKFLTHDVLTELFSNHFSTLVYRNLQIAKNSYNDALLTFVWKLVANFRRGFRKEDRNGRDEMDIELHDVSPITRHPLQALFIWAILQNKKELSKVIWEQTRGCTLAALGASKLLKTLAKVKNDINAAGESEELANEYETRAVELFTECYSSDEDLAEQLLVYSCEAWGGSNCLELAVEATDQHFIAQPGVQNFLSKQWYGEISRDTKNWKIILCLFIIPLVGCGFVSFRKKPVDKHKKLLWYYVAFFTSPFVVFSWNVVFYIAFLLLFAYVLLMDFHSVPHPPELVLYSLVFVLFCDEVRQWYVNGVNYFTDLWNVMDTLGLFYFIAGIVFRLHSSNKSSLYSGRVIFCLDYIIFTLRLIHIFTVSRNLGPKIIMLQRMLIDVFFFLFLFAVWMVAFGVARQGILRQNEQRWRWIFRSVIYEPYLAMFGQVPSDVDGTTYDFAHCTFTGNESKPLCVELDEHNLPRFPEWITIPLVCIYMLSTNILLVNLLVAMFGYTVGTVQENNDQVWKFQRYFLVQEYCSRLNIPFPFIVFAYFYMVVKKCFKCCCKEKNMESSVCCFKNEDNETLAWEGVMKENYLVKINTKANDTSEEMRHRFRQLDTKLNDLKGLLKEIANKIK

Question: How did the activation at 10 µM [1] turn out when `CC1CC[C@@H](C(C)C)[C@H](n2cc(CCCCCCCCC(=O)O)nn2)C1` (stereo in doubt) [TZM-21, 9-(1-((1R,2S,5S)-2-isopropyl-5-methylcyclohexyl)-1H-1,2,3-triazole-4-yl)-nonanoic acid] was run?
Answer: Its activation at 10 µM is 54 ± 14.4%.

Question: Which activation at 10 µM [1] does the source give for `CC1CC[C@@H](C(C)C)[C@H](n2cc(CCCCC#N)nn2)C1` (stereo in doubt) [TZM-22, 5-(1-((1R,2S,5S)-2-isopropyl-5-methylcyclohexyl)-1H-1,2,3-triazole-4-yl)pentanenitrile] here?
Answer: Its activation at 10 µM is 57.3 ± 15.2%.

Question: How did the tear secretion [2] turn out when `CC1CCC(C(C)C)C(O)C1` (stereo not shown) [Menthol, reference compound] was run?
Answer: The tear secretion was “produces an increase in tear secretion”.

Question: And the activation at 10 µM [1]?
Answer: Its activation at 10 µM is 101 ± 1.66%.

Question: How did the activation at 10 µM [1] turn out when `CC(C)[C@@H]1CC[C@@H](C)C[C@H]1n1cc(CO)nn1` [TZM-1] was run?
Answer: The activation at 10 µM was 45.5 ± 11.2%.

Question: How did the activation at 10 µM [1] turn out when `CC(C)[C@@H]1CC[C@@H](C)C[C@H]1n1cc(-c2ccc(Oc3ccccc3)cc2)nn1` [TZM-2, 1-((1R,2S,5R)-2-isopropyl-5-methylcyclohexyl)-4-(4-phenoxyphenyl)-1H-1,2,3-triazole] was run?
Answer: The activation at 10 µM was 55.6 ± 26.2%.

Question: How did the activation at 10 µM [1] turn out when `CC(C)[C@@H]1CC[C@@H](C)C[C@H]1n1cc(-c2ccccc2)nn1` [TZM-3, 1-((1R,2S,5R)-2-isopropyl-5-methylcyclohexyl)-4-phenyl-1H-1,2,3-triazole] was run?
Answer: Its activation at 10 µM is 51.6 ± 14%.

Question: Which results are given for `COc1ccc(-c2cn([C@@H]3C[C@H](C)CC[C@H]3C(C)C)nn2)cc1` [TZM-4, 1-((1R,2S,5R)-2-isopropyl-5-methylcyclohexyl)-4-(4-methoxyphenyl)-1H-1,2,3-triazole]?
Answer: activation at 10 µM [1]: 85.1 ± 33%; EC50 [1]: 3.47 ± 1.34 µM

Question: For `CC(C)[C@@H]1CC[C@@H](C)C[C@H]1n1cc(-c2ccc(-c3ccccc3)cc2)nn1` [TZM-5, 4-([1,1′-biphenyl]-4-yl)-1-((1R,2S,5R)-2-isopropyl-5-methylcyclohexyl)-1H-1,2,3-triazole], which activation at 10 µM [1] is on record?
Answer: The activation at 10 µM was 50.1 ± 8.25%.

Question: Which activation at 10 µM [1] does the source give for `CC(C)[C@@H]1CC[C@@H](C)C[C@H]1n1cc(C2(O)CCCCC2)nn1` [TZM-6, 1-(1-((1R,2S,5R)-2-isopropyl-5-methylcyclohexyl)-1H-1,2,3-triazole-4-yl)cyclohexan-1-ol] here?
Answer: The activation at 10 µM was 45.1 ± 16.9%.

Question: Which activation at 10 µM [1] does the source give for `CC(C)[C@@H]1CC[C@@H](C)C[C@H]1n1cc(-c2cccc3ccccc23)nn1` [TZM-8, 1-((1R,2S,5R)-2-isopropyl-5-methylcyclohexyl)-4-(naphthalene-1-yl)-1H-1,2,3-triazole] here?
Answer: The activation at 10 µM was 56.5 ± 29.7%.

Question: `CC(C)[C@@H]1CC[C@@H](C)C[C@H]1n1cc(-c2ccccn2)nn1` [TZM-9, 2-(1-((1R,2S,5R)-2-isopropyl-5-methylcyclohexyl)-1H-1,2,3-triazole-4-yl)pyridine] was tested. Which activation at 10 µM [1] did it give?
Answer: Its activation at 10 µM is 59.1 ± 30.4%.

Question: And the EC50 [1]?
Answer: The EC50 was 6.23 ± 3.18 µM.

Question: How did the activation at 10 µM [1] turn out when `CC(C)[C@@H]1CC[C@@H](C)C[C@H]1n1cc(CCc2ccccc2)nn1` [TZM-10, 1-((1R,2S,5R)-2-isopropyl-5-methylcyclohexyl)-4-phenethyl-1H-1,2,3-triazole] was run?
Answer: Its activation at 10 µM is 45 ± 23.4%.

Question: And the EC50 [1]?
Answer: The EC50 was 3.84 ± 2.36 µM.

Question: What does the source list for `COc1ccc(C(=O)c2cn([C@@H]3C[C@H](C)CC[C@H]3C(C)C)nn2)cc1OC` [TZM-11, (3,4-dimethoxyphenyl) (1-((1R,2S,5R)-2-isopropyl-5-methylcyclohexyl)-1H-1,2,3-triazole-4-yl)methanone]?
Answer: activation at 10 µM [1]: 53.5 ± 13.4%; EC50 [1]: 9.84 ± 3.29 µM

Question: Which activation at 10 µM [1] does the source give for `CC(C)[C@@H]1CC[C@@H](C)C[C@H]1n1cc(C(=O)c2cccc(F)c2)nn1` [TZM-12, (3-fluorophenyl) (1-((1R,2S,5R)-2-isopropyl-5-methylcyclohexyl)-1H-1,2,3-triazole-4-yl)methanone] here?
Answer: The activation at 10 µM was 57.9 ± 8.57%.

Question: With `CC(C)[C@@H]1CC[C@@H](C)C[C@H]1n1cc(C(=O)c2ccc(Oc3ccccc3)cc2)nn1` [TZM-13, (1-((1R,2S,5R)-2-isopropyl-5-methylcyclohexyl)-1H-1,2,3-triazole-4-yl) (4-phenoxyphenyl)methanone] as the compound, how does the activation at 10 µM [1] read?
Answer: Its activation at 10 µM is 46.5 ± 6.57%.

Question: Which activation at 10 µM [1] does the source give for `COc1ccc(C(=O)c2cn([C@@H]3C[C@H](C)CC[C@H]3C(C)C)nn2)c(OC)c1` [TZM-14, (2,4-dimethoxyphenyl) (1-((1R,2S,5R)-2-isopropyl-5-methylcyclohexyl)-1H-1,2,3-triazole-4-yl)methanone] here?
Answer: The activation at 10 µM was 43.8 ± 4.22%.

Question: How did the activation at 10 µM [1] turn out when `COc1ccccc1C(=O)c1cn([C@@H]2C[C@H](C)CC[C@H]2C(C)C)nn1` [TZM-15, (1-((1R,2S,5R)-2-isopropyl-5-methylcyclohexyl)-1H-1,2,3-triazole-4-yl) (2-methoxyphenyl)methanone] was run?
Answer: The activation at 10 µM was 50.5 ± 4.83%.

Question: `COc1cc(OC)cc(C(=O)c2cn([C@@H]3C[C@H](C)CC[C@H]3C(C)C)nn2)c1` [TZM-16, (3,5-dimethoxyphenyl) (1-((1R,2S,5R)-2-isopropyl-5-methylcyclohexyl)-1H-1,2,3-triazole-4-yl)methanone] was tested. Which activation at 10 µM [1] did it give?
Answer: Its activation at 10 µM is 44.5 ± 5.59%.

Question: `CC(C)[C@@H]1CC[C@@H](C)C[C@H]1n1cc(C(=O)c2ccc(-c3ccccc3)cc2)nn1` [TZM-17, [1,1′-biphenyl]-4-yl(1-((1R,2S,5R)-2-isopropyl-5-methylcyclohexyl)-1H-1,2,3-triazole-4-yl)methanone] was tested. Which activation at 10 µM [1] did it give?
Answer: The activation at 10 µM was 42 ± 4.53%.

Question: `COc1ccc(C(=O)c2cn([C@@H]3C[C@H](C)CC[C@H]3C(C)C)nn2)cc1` [TZM-18, (1-((1R,2S,5R)-2-isopropyl-5-methylcyclohexyl)-1H-1,2,3-triazole-4-yl) (4-methoxyphenyl)methanone] was tested. Which activation at 10 µM [1] did it give?
Answer: Its activation at 10 µM is 44.6 ± 5.62%.

Question: With `COc1cccc(C(=O)c2cn([C@@H]3C[C@H](C)CC[C@H]3C(C)C)nn2)c1` [TZM-19, (1-((1R,2S,5R)-2-isopropyl-5-methylcyclohexyl)-1H-1,2,3-triazole-4-yl) (3-methoxyphenyl)methanone] as the compound, how does the activation at 10 µM [1] read?
Answer: Its activation at 10 µM is 40.8 ± 9.01%.

Question: How did the activation at 10 µM [1] turn out when `CC(C)[C@@H]1CC[C@@H](C)C[C@H]1n1cc(C(=O)c2ccc(Cl)cc2)nn1` [TZM-20, (4-chlorophenyl) (1-((1R,2S,5R)-2-isopropyl-5-methylcyclohexyl)-1H-1,2,3-triazole-4-yl)methanone] was run?
Answer: The activation at 10 µM was 66.9 ± 17.5%.

Question: With `CC(C)[C@@H]1CC[C@@H](C)C[C@H]1n1cc(-c2cccc(O)c2)nn1` [TZM-23, 3-[1-((1R,2S,5R)-2-isopropyl-5-methylcyclohexyl)-1H-1,2,3-triazole-4-yl]phenol] as the compound, how does the activation at 10 µM [1] read?
Answer: The activation at 10 µM was 51.2 ± 16.1%.

Question: With `COc1cccc(-c2cn([C@@H]3C[C@H](C)CC[C@H]3C(C)C)nn2)c1` [TZM-24, 1-((1R,2S,5R)-2-isopropyl-5-methylcyclohexyl)-4-(3-methoxyphenyl)-1H-1,2,3-triazole] as the compound, how does the activation at 10 µM [1] read?
Answer: The activation at 10 µM was 37.8 ± 5.49%.

Question: How did the activation at 10 µM [1] turn out when `COCc1cn([C@@H]2C[C@H](C)CC[C@H]2C(C)C)nn1` [TZM-25, 1-((1R,2S,5R)-2-isopropyl-5-methylcyclohexyl)-4-(methoxymethyl)-1H-1,2,3-triazole] was run?
Answer: The activation at 10 µM was 45.1 ± 18.6%.

Question: For `COc1ccc(C(O)c2cn([C@@H]3C[C@H](C)CC[C@H]3C(C)C)nn2)cc1OC` (stereo partly drawn) [TZM-26, (3,4-dimethoxyphenyl) (1-((1R,2S,5R)-2-isopropyl-5-methylcyclohexyl)-1H-1,2,3-triazole-4-yl)methanol], which activation at 10 µM [1] is on record?
Answer: The activation at 10 µM was 50.9 ± 17.2%.
